Source: patent US11173192B2 (priority 2016, dated 2021)

Assays:
VSV = assay type: cell-based, vesicular stomatitis virus (VSV)
[1] = tested on: VSV-infected RAW264.7 cells; assay type: cell-based

## EPRS: glutamyl-prolyl-tRNA synthetase protein, 1512 aa, SEQ ID NO: 63; expressed from plasmid or purified
VSV
  viral replication following infection with VSV: significantly less viral replication
[1]
  IFN-β production following infection with VSV: more production of IFN-β and IL-6
  IL-6 production following infection with VSV: more production of IFN-β and IL-6
